In ChEMBL document CHEMBL1141566, “Synthesis and antitumor evaluation of bis aza-anthracene-9,10-diones and bis aza-anthrapyrazole-6-ones” (2008):

Tests used:
Assay type in all cases: functional
HT-29 [1] = assay: Cytotoxicity against human HT29 cells after 72 hrs; settings: HT-29, 72 h
HT-29 [2] = assay: Effect on apoptosis in human HT29 PI-/AnnV- cells after 6 hrs by biparametric flow cytometric analysis; settings: HT-29, 6 h, read-out: LC50 (the source's name)
HT-29 [3] = assay: Effect on apoptosis in human HT29 PI+/AnnV- cells after 6 hrs by biparametric flow cytometric analysis; settings: HT-29, 6 h, read-out: LC50 (the source's name)
HT-29 [4] = assay: Effect on proapoptotic CASP9 gene expression in human HT29 cells after 6 hrs
HT-29 [5] = assay: Effect on apoptotic NOL3 gene expression in human HT29 cells after 6 hrs
HT-29 [6] = assay: Effect on proapoptotic TNFRSF10B gene expression in human HT29 cells after 12 hrs
HT-29 [7] = assay: Effect on apoptotic AKT1 gene expression in human HT29 cells after 12 hrs
HT-29 [8] = assay: Effect on proapoptotic BCLAF1 gene expression in human HT29 cells after 12 hrs
HT-29 [9] = assay: Effect on apoptotic IGF1R gene expression in human HT29 cells after 6 hrs
HT-29 [10] = assay: Effect on apoptosis in human HT29 PI+/AnnV+ cells after 24 hrs by biparametric flow cytometric analysis; settings: HT-29, 24 h, read-out: LC50 (the source's name)
HT-29 [11] = assay: Effect on proapoptotic BAK1 gene expression in human HT29 cells after 12 hrs
HT-29 [12] = assay: Effect on proapoptotic BFAR gene expression in human HT29 cells after 12 hrs
HT-29 [13] = assay: Effect on proapoptotic BCL2 gene expression in human HT29 cells after 6 hrs
HT-29 [14] = assay: Effect on proapoptotic CARD6 gene expression in human HT29 cells after 12 hrs
HT-29 [15] = assay: Effect on apoptotic MCL1 gene expression in human HT29 cells after 6 hrs
HT-29 [16] = assay: Effect on proapoptotic BNIP1 gene expression in human HT29 cells after 6 hrs
HT-29 [17] = assay: Effect on apoptotic CFLAR gene expression in human HT29 cells after 6 hrs
HT-29 [18] = assay: Effect on apoptotic BCL2L10 gene expression in human HT29 cells after 6 hrs
HT-29 [19] = assay: Effect on apoptotic BIRC8 gene expression in human HT29 cells after 6 hrs
HT-29 [20] = assay: Effect on apoptotic CFLAR gene expression in human HT29 cells after 12 hrs
HT-29 [21] = assay: Effect on apoptotic BIRC6 gene expression in human HT29 cells after 6 hrs
HT-29 [22] = assay: Effect on proapoptotic CARD8 gene expression in human HT29 cells after 6 hrs
HT-29 [23] = assay: Effect on apoptotic BIRC8 gene expression in human HT29 cells after 12 hrs
HT-29 [24] = assay: Effect on proapoptotic BFAR gene expression in human HT29 cells after 6 hrs
HT-29 [25] = assay: Effect on proapoptotic LTBR gene expression in human HT29 cells after 6 hrs
HT-29 [26] = assay: Effect on apoptosis in human HT29 PI+/AnnV- cells after 12 hrs by biparametric flow cytometric analysis; settings: HT-29, 12 h, read-out: LC50 (the source's name)
HT-29 [27] = assay: Effect on apoptotic MCL1 gene expression in human HT29 cells after 12 hrs
HT-29 [28] = assay: Effect on proapoptotic NOD1 gene expression in human HT29 cells after 6 hrs
HT-29 [29] = assay: Effect on apoptosis in human HT29 PI-/AnnV+ cells after 24 hrs by biparametric flow cytometric analysis; settings: HT-29, 24 h, read-out: LC50 (the source's name)
HT-29 [30] = assay: Effect on apoptosis in human HT29 PI+/AnnV+ cells after 12 hrs by biparametric flow cytometric analysis; settings: HT-29, 12 h, read-out: LC50 (the source's name)
HT-29 [31] = assay: Effect on proapoptotic CASP7 gene expression in human HT29 cells after 6 hrs
HT-29 [32] = assay: Effect on proapoptotic TNFRSF10A gene expression in human HT29 cells after 6 hrs
HT-29 [33] = assay: Effect on apoptosis in human HT29 PI-/AnnV- cells after 12 hrs by biparametric flow cytometric analysis; settings: HT-29, 12 h, read-out: LC50 (the source's name)
HT-29 [34] = assay: Effect on apoptotic BAG4 gene expression in human HT29 cells after 12 hrs
HT-29 [35] = assay: Effect on apoptotic BAG4 gene expression in human HT29 cells after 6 hrs
HT-29 [36] = assay: Effect on apoptotic BAG1 gene expression in human HT29 cells after 6 hrs
HT-29 [37] = assay: Effect on apoptosis in human HT29 PI-/AnnV- cells after 24 hrs by biparametric flow cytometric analysis; settings: HT-29, 24 h, read-out: LC50 (the source's name)
HT-29 [38] = assay: Effect on apoptotic GADD45A gene expression in human HT29 cells after 6 hrs
HT-29 [39] = assay: Effect on proapoptotic BNIP3L gene expression in human HT29 cells after 12 hrs
HT-29 [40] = assay: Effect on apoptotic BCL10 gene expression in human HT29 cells after 12 hrs
HT-29 [41] = assay: Effect on apoptotic BIRC3 gene expression in human HT29 cells after 12 hrs
HT-29 [42] = assay: Effect on apoptosis in human HT29 PI+/AnnV- cells after 24 hrs by biparametric flow cytometric analysis; settings: HT-29, 24 h, read-out: LC50 (the source's name)
HT-29 [43] = assay: Effect on apoptotic IGF1R gene expression in human HT29 cells after 12 hrs
HT-29 [44] = assay: Effect on apoptotic BRAF gene expression in human HT29 cells after 12 hrs
HT-29 [45] = assay: Effect on proapoptotic LTBR gene expression in human HT29 cells after 12 hrs
HT-29 [46] = assay: Effect on proapoptotic BAX gene expression in human HT29 cells after 6 hrs
HT-29 [47] = assay: Effect on proapoptotic BNIP3L gene expression in human HT29 cells after 6 hrs
HT-29 [48] = assay: Effect on proapoptotic BAK1 gene expression in human HT29 cells after 6 hrs
HT-29 [49] = assay: Effect on proapoptotic CIDEB gene expression in human HT29 cells after 12 hrs
HT-29 [50] = assay: Effect on apoptotic BCL2L1 gene expression in human HT29 cells after 6 hrs
HT-29 [51] = assay: Effect on apoptotic NOL3 gene expression in human HT29 cells after 12 hrs
HT-29 [52] = assay: Effect on proapoptotic CARD6 gene expression in human HT29 cells after 6 hrs
HT-29 [53] = assay: Effect on apoptosis in human HT29 PI-/AnnV+ cells after 12 hrs by biparametric flow cytometric analysis; settings: HT-29, 12 h, read-out: LC50 (the source's name)
HT-29 [54] = assay: Effect on proapoptotic CIDEB gene expression in human HT29 cells after 6 hrs
HT-29 [55] = assay: Effect on apoptosis in human HT29 PI+/AnnV+ cells after 6 hrs by biparametric flow cytometric analysis; settings: HT-29, 6 h, read-out: LC50 (the source's name)
HT-29 [56] = assay: Effect on proapoptotic BAX gene expression in human HT29 cells after 12 hrs
HT-29 [57] = assay: Effect on proapoptotic TNFRSF10A gene expression in human HT29 cells after 12 hrs
HT-29 [58] = assay: Effect on proapoptotic BCL2L11 gene expression in human HT29 cells after 6 hrs
HT-29 [59] = assay: Effect on apoptosis in human HT29 PI-/AnnV+ cells after 6 hrs by biparametric flow cytometric analysis; settings: HT-29, 6 h, read-out: LC50 (the source's name)

CN(C)CCn1nc2c3c(c(NCCCN(C)CCCNc4ccc5c6c(nn5CCN(C)C)-c5cnccc5C(=O)c46)ccc31)C(=O)c1ccncc1-2
GI50 (HT-29 [1]): 0.36 nM
LC50 (concentration killing 50% of cells) (HT-29 [1]): 9.8 µM
TGI (HT-29 [1]): 1300 nM
CC50 (HT-29 [2]): 72.5 µM
CC50 (HT-29 [3]): 3.4 µM
Fold change (HT-29 [4]): 2.2
Fold change (HT-29 [5]): -2.5
Fold change (HT-29 [6]): -4.3
Fold change (HT-29 [7]): -6.3
Fold change (HT-29 [8]): 136
Fold change (HT-29 [9]): -38.5
CC50 (HT-29 [10]): 22.2 µM
Fold change (HT-29 [11]): 4.1
Fold change (HT-29 [12]): -2.5
Fold change (HT-29 [13]): -2.8
Fold change (HT-29 [14]): -6.7
Fold change (HT-29 [15]): -5
Fold change (HT-29 [16]): 3
Fold change (HT-29 [17]): -2.2
Fold change (HT-29 [18]): 2.2
Fold change (HT-29 [19]): -5.6
Fold change (HT-29 [20]): -3.3
Fold change (HT-29 [21]): -2.6
Fold change (HT-29 [22]): 4
Fold change (HT-29 [23]): -33.3
Fold change (HT-29 [24]): -7
Fold change (HT-29 [25]): -5.3
CC50 (HT-29 [26]): 4.2 µM
Fold change (HT-29 [27]): -2.7
Fold change (HT-29 [28]): 4.2
CC50 (HT-29 [29]): 62.3 µM
CC50 (HT-29 [30]): 3.4 µM
Fold change (HT-29 [31]): 5.6
Fold change (HT-29 [32]): -2.5
CC50 (HT-29 [33]): 60 µM
Fold change (HT-29 [34]): -3.3
Fold change (HT-29 [35]): -7
Fold change (HT-29 [36]): -2.5
CC50 (HT-29 [37]): 8.3 µM
Fold change (HT-29 [38]): 8.8
Fold change (HT-29 [39]): 3.6
Fold change (HT-29 [40]): -2.2
Fold change (HT-29 [41]): -6.3
CC50 (HT-29 [42]): 7.2 µM
Fold change (HT-29 [43]): -4
Fold change (HT-29 [44]): -9.1
Fold change (HT-29 [45]): -4.3
Fold change (HT-29 [46]): 4.1
Fold change (HT-29 [47]): 7.4
Fold change (HT-29 [48]): 4.5
Fold change (HT-29 [49]): 2.4
Fold change (HT-29 [50]): 1.2
Fold change (HT-29 [51]): -3.8
Fold change (HT-29 [52]): -2.7
CC50 (HT-29 [53]): 32.4 µM
Fold change (HT-29 [54]): 8.3
CC50 (HT-29 [55]): 1800 nM
Fold change (HT-29 [56]): 1.3
Fold change (HT-29 [57]): -5.9
Fold change (HT-29 [58]): 7.7
CC50 (HT-29 [59]): 22.3 µM
